In article PMC5488091, “Tellurite and Tellurate Reduction by the Aerobic Anoxygenic Phototroph Erythromonas ursincola, Strain KR99 Is Carried out by a Novel Membrane Associated Enzyme” (Microorganisms, 2017):
Like-named read-outs stand apart in the source and are kept apart here.

What was measured:
[1] = tested on: T1, tellurite reductase (membrane associated tellurite/tellurate reductase); assay: spectrophotometric tellurite reduction at […] nm; assay type: biochemical, Blastomonas ursincola; conditions: electron donor; co-substrate tellurite; pH 7.0, 28 °C
T1 construct: native enzyme purified from Triton X-100 solubilised membranes of KR99; 117 kDa heterodimer (62 + 55 kDa, 1:1); MS nearest match GroEL of Blastomonas sp

[2] = tested on: T1, tellurite reductase (membrane associated tellurite/tellurate reductase); assay type: biochemical, Blastomonas ursincola; conditions: co-substrate NADH (25 µL of 5 mM stock as printed), Tris HCl pH 7.0, 28 °C
[3] = biological target: tellurite reductase 55 kDa subunit of Erythromonas ursincola, strain KR99 (Erythromonas ursincola, strain KR99 (endogenous)); assay: SEC; endogenous enzyme co-purified from solubilised membranes; single band on 5% native PAGE; native mass by Superdex S-200 gel filtration in 20 mM Tris HCl pH 8.0; subunits by SDS-PAGE (12%) after boiling in 1% SDS with 2-mercaptoethanol

## NC(=O)C1=CN([C@@H]2O[C@H](COP(=O)(O)OP(=O)(O)OC[C@H]3O[C@@H](n4cnc5c(N)ncnc54)[C@H](O)[C@@H]3O)[C@@H](O)[C@H]2O)C=CC1 [NADH]
[1]
  Km: 81.5 µM

## O=[Te](=O)(O)O [tellurate]
[2]; tellurate 0–5 mM
  Km: 1440 µM

## O=[Te](O)O [tellurite]
[2]; tellurite 0–13 mM
  Km: 3360 µM

## tellurite reductase 62 kDa subunit of Erythromonas ursincola, strain KR99 (natural protein)
[3]
  stoichiometry N: 1
